Data reported in US7553829B2, “Treatment of chronic fatigue syndrome and fibromyalgia syndrome” (Humanetics Corporation, priority 2000, dated 2009).

System: chronic fatigue syndrome
Assay: Experiment 1: oral treatment of a subject diagnosed with chronic fatigue syndrome
Type: in vivo, human
Conditions: one subject, CFS by CDC criteria; 100 mg capsules orally twice daily for two months
Experimental: One subject, recently diagnosed with chronic fatigue syndrome by CDC criteria, orally consumed 100 mg capsules of Δ5-androstene-3-acetyl-7,17-dione twice daily for two months. […] As testament to their improvement, they reported to their physician that they had just finished building a 20′×30′ addition to their bam, something, they said, they would not have and could not have done prior to taking Δ5-androstene-3-acetyl-7,17-dione.

CC(=O)O[C@H]1CC[C@@]2(C)C(=CC(=O)[C@@H]3[C@@H]2CC[C@]2(C)C(=O)CC[C@@H]32)C1 [Δ5-androstene-3-acetyl-7,17-dione]
improvement in their symptoms of fatigue (self-reported): 80%
mental alertness (self-reported): felt more mentally alert
